{"source": "patent US20150038435A1", "about": "“N-TERMINALLY MODIFIED OLIGOPEPTIDES AND USES THEREOF” (Novo Nordisk A/S, priority 2012, published 2015)", "key": {"Chymotrypsin": {"system": "Chymotrypsin", "test": "Inhibition of enzymatic degradation of a model GLP-1 (FRET substrate) by chymotrypsin", "assay_type": "biochemical", "details": "compound 0.1 mM, buffer containing 8% DMSO", "text": "(§1) The use of Förster resonance energy transfer (FRET), also known as fluorescence resonance energy transfer, substrates to monitor activity of proteolytic enzymes is known in the field (for example Anjuere, F. et al. (1993). Biochem J 291 (Pt 3), 869-73).\n(§2) Model GLP-1 analogue was designed as FRET substrate by incorporation of 7-Methoxycoumarin-4-acetic acid (MCA) group as the donor chromophore and dinitrophenol group (DNP) as the acceptor chromophore.\n(§3) An assay following the increase in fluorescence as a function of time was established in 96 well format using Varioskan Flash Multimode Meter (Thermo Scientific). Each well contained 70 μl of Dulbecco's phosphate buffer saline (Invitrogen catalogue #14190-094), 10 μl of 100 μM GLP-1 FRET substrate, 10 μl of N-terminally acylated peptide or oligopeptide of the invention in varying concentration and 10 μl of a stock solution of an enzyme (chymotrypsin, trypsin, elastase, etc.). The incubations were performed at 37° C. Fluorescence (320 nm excitation wavelength and 405 nm emission wavelength) was measured immediately after addition of the enzyme to the 96 well plate and also every minute for at least the next 30 minutes. The concentration of the enzyme was optimized to allow determination of slopes for the time course of initial fluorescence increase with and without the N-terminally acylated peptides or oligopeptides of the invention. The slopes were determined by linear regression of the linear part of the fluorescence trace (for example, the first 10 min of the reaction). Each assay was performed in duplicate and average of the two traces was included in the calculations. The relative effect of N-terminally acylated peptide or oligopeptides of the invention on enzymatic degradation of GLP-1 FRET substrate was obtained by comparison of the slopes achieved by the same concentration of the N-terminally acylated peptide or oligopeptides. […] This was done by plotting the slopes achieved with different concentrations of the N-terminally acylated peptide or oligopeptides of the invention as a function of their concentrations and fitting the experimental results using, for example, sigmoidal logistic regression (2 parameters, Sigma Plot v 11). Inhibition constants for the interaction between the N-terminally acylated peptide or oligopeptides of the invention and proteolytic enzymes were also obtained by performing the assay described above with varying concentrations of the inhibitor and substrate and analyzing the results, for example, by double reciprocal transformation as known to the person skilled in the art and described for example in Hubalek, F. et al., J. Med. Chem. 47, 1760-1766 (2004).\n(§4) The EC50 was determined for the following compounds. EC50±standard error is reported if the results of at least 3 independent measurements were available."}, "[1]": {"test": "Hydrophobicity: retention time during reverse phase HPLC", "assay_type": "physicochemical", "details": "Acquity CSH C18; pH 7.2 buffer/CH3CN gradient; 40° C.", "text": "The retention time (RT) during reverse phase HPLC was taken as a measure of hydrophobicity of an N-terminally modified peptide or oligopeptide of the invention, where the connection is: The longer the RT, the more hydrophobic N-terminally modified peptide or oligopeptide. The following running conditions were applied during HPLC analysis:\nBuffer B: 70% (v/v) aq. CH3CN"}, "Trypsin": {"system": "Trypsin", "test": "Inhibition of enzymatic degradation of a model GLP-1 (FRET substrate) by trypsin", "assay_type": "biochemical", "details": "compound 0.1 mM, buffer containing 8% DMSO", "text": "as §1, §2, §3, §4"}}, "note": "*: point of attachment. Lauroyl = CCCCCCCCCCCC(=O)*", "data": [{"substance": "N-dodecanoyl-Ala-Ala-Met-Tyr-OH (Lauroyl-AAMY-OH; SMILES CCCCCCCCCCCC(=O)N[C@@H](C)C(=O)N[C@@H](C)C(=O)N[C@@H](CCSC)C(=O)N[C@@H](Cc1ccc(O)cc1)C(=O)O) [Example 68]", "values": [{"measurement": "Slope of the initial increase in fluorescence obtained during incubation with 0.001 mg/ml Chymotrypsin", "setting": "Chymotrypsin", "value": 0.60}, {"measurement": "RT (retention time during reverse phase HPLC as a measure of hydrophobicity)", "setting": "[1]", "value": 6.68, "unit": "min"}, {"measurement": "Slope of the initial increase in fluorescence obtained during incubation with 0.001 mg/ml Trypsin", "setting": "Trypsin", "value": 1.73}]}, {"substance": "N-dodecanoyl-Thr-Pro-Tyr-OH [Example 108]", "values": [{"measurement": "Slope of the initial increase in fluorescence obtained during incubation with 0.001 mg/ml Chymotrypsin", "setting": "Chymotrypsin", "value": 0.59}, {"measurement": "RT (retention time during reverse phase HPLC as a measure of hydrophobicity)", "setting": "[1]", "value": 5.72, "unit": "min"}, {"measurement": "Slope of the initial increase in fluorescence obtained during incubation with 0.001 mg/ml Trypsin", "setting": "Trypsin", "value": 1.92}]}, {"substance": "N-dodecanoyl-Ala-Ala-Arg-Tyr-OH (Lauroyl-AARY-OH; SMILES CCCCCCCCCCCC(=O)N[C@@H](C)C(=O)N[C@@H](C)C(=O)N[C@@H](CCCNC(=N)N)C(=O)N[C@@H](Cc1ccc(O)cc1)C(=O)O) [Example 58]", "values": [{"measurement": "Slope of the initial increase in fluorescence obtained during incubation with 0.001 mg/ml Chymotrypsin", "setting": "Chymotrypsin", "value": 0.28}, {"measurement": "RT (retention time during reverse phase HPLC as a measure of hydrophobicity)", "setting": "[1]", "value": 4.87, "unit": "min"}, {"measurement": "Slope of the initial increase in fluorescence obtained during incubation with 0.001 mg/ml Trypsin", "setting": "Trypsin", "value": 1.98}]}, {"substance": "N-dodecanoyl-Ala-Ser-Pro-Tyr-OH (Lauroyl-ASPY-OH; SMILES CCCCCCCCCCCC(=O)N[C@@H](C)C(=O)N[C@@H](CO)C(=O)N1CCC[C@H]1C(=O)N[C@@H](Cc1ccc(O)cc1)C(=O)O) [Example 86]", "values": [{"measurement": "Slope of the initial increase in fluorescence obtained during incubation with 0.001 mg/ml Chymotrypsin", "setting": "Chymotrypsin", "value": 0.33}, {"measurement": "RT (retention time during reverse phase HPLC as a measure of hydrophobicity)", "setting": "[1]", "value": 5.64, "unit": "min"}, {"measurement": "Slope of the initial increase in fluorescence obtained during incubation with 0.001 mg/ml Trypsin", "setting": "Trypsin", "value": 1.89}]}, {"substance": "N-dodecanoyl-γGlu-Pro-Tyr-OH [Example 100]", "values": [{"measurement": "Slope of the initial increase in fluorescence obtained during incubation with 0.001 mg/ml Chymotrypsin", "setting": "Chymotrypsin", "value": 1.75}, {"measurement": "RT (retention time during reverse phase HPLC as a measure of hydrophobicity)", "setting": "[1]", "value": 3.9, "unit": "min"}, {"measurement": "Slope of the initial increase in fluorescence obtained during incubation with 0.001 mg/ml Trypsin", "setting": "Trypsin", "value": 1.69}]}, {"substance": "N-dodecanoyl-Ala-Gly-Pro-Tyr-OH (Lauroyl-AGPY-OH; SMILES CCCCCCCCCCCC(=O)N[C@@H](C)C(=O)NCC(=O)N1CCC[C@H]1C(=O)N[C@@H](Cc1ccc(O)cc1)C(=O)O) [Example 78]", "values": [{"measurement": "Slope of the initial increase in fluorescence obtained during incubation with 0.001 mg/ml Chymotrypsin", "setting": "Chymotrypsin", "value": 1.03}, {"measurement": "RT (retention time during reverse phase HPLC as a measure of hydrophobicity)", "setting": "[1]", "value": 5.59, "unit": "min"}, {"measurement": "Slope of the initial increase in fluorescence obtained during incubation with 0.001 mg/ml Trypsin", "setting": "Trypsin", "value": 1.87}]}, {"substance": "N-dodecanoyl-Gly-Pro-Tyr-OH [Example 118]", "values": [{"measurement": "Slope of the initial increase in fluorescence obtained during incubation with 0.001 mg/ml Chymotrypsin", "setting": "Chymotrypsin", "value": 1.94}, {"measurement": "RT (retention time during reverse phase HPLC as a measure of hydrophobicity)", "setting": "[1]", "value": 5.35, "unit": "min"}, {"measurement": "Slope of the initial increase in fluorescence obtained during incubation with 0.001 mg/ml Trypsin", "setting": "Trypsin", "value": 1.84}]}, {"substance": "N-dodecanoyl-Ala-Ala-Gln-Tyr-OH (Lauroyl-AAQY-OH; SMILES CCCCCCCCCCCC(=O)N[C@@H](C)C(=O)N[C@@H](C)C(=O)N[C@@H](CCC(N)=O)C(=O)N[C@@H](Cc1ccc(O)cc1)C(=O)O) [Example 61]", "values": [{"measurement": "Slope of the initial increase in fluorescence obtained during incubation with 0.001 mg/ml Chymotrypsin", "setting": "Chymotrypsin", "value": 2.20}, {"measurement": "RT (retention time during reverse phase HPLC as a measure of hydrophobicity)", "setting": "[1]", "value": 8.28, "unit": "min"}, {"measurement": "Slope of the initial increase in fluorescence obtained during incubation with 0.001 mg/ml Trypsin", "setting": "Trypsin", "value": 2.07}]}, {"substance": "N-dodecanoyl-Ala-Ala-Ile-Tyr-OH (Lauroyl-AAIY-OH; SMILES CCCCCCCCCCCC(=O)N[C@@H](C)C(=O)N[C@@H](C)C(=O)N[C@H](C(=O)N[C@@H](Cc1ccc(O)cc1)C(=O)O)[C@@H](C)CC) [Example 65]", "values": [{"measurement": "Slope of the initial increase in fluorescence obtained during incubation with 0.001 mg/ml Chymotrypsin", "setting": "Chymotrypsin", "value": 2.04}, {"measurement": "RT (retention time during reverse phase HPLC as a measure of hydrophobicity)", "setting": "[1]", "value": 3.12, "unit": "min"}, {"measurement": "Slope of the initial increase in fluorescence obtained during incubation with 0.001 mg/ml Trypsin", "setting": "Trypsin", "value": 1.60}]}, {"substance": "N-dodecanoyl-Leu-Ala-Pro-Tyr-OH (Lauroyl-LAPY-OH; SMILES CCCCCCCCCCCC(=O)N[C@@H](CC(C)C)C(=O)N[C@@H](C)C(=O)N1CCC[C@H]1C(=O)N[C@@H](Cc1ccc(O)cc1)C(=O)O) [Example 43]", "values": [{"measurement": "Slope of the initial increase in fluorescence obtained during incubation with 0.001 mg/ml Chymotrypsin", "setting": "Chymotrypsin", "value": 0.21}, {"measurement": "RT (retention time during reverse phase HPLC as a measure of hydrophobicity)", "setting": "[1]", "value": 7.86, "unit": "min"}, {"measurement": "Slope of the initial increase in fluorescence obtained during incubation with 0.001 mg/ml Trypsin", "setting": "Trypsin", "value": 1.36}]}]}
